Assay [1] in a line: stress-induced erosion test (Senay and Levine), anti-ulcer activity. Type of assay: in vivo. The procedure:
Anti-ulcer activity was determined by the stress-induced erosion test of Senay and Levine, Proc. Soc. Exp. Biol. Med., 124, 1221-3 (1967).

Another assay has as its target T1, H^+ /K^+ ATPase (Oryctolagus cuniculus, UniProt P27112).
T1 construct: Rabbit gastric glands are isolated from gastric mucosa from the corpus region of the stomach; from tissue; host or cells: isolated gastric glands from rabbit gastric mucosa, corpus region of the stomach
The assay can be described thus: inhibition of 14C-aminopyrine accumulation in rabbit isolated gastric glands stimulated by DBcAMP or high K+ (H+/K+ ATPase inhibition). Type of assay: cell-based. To be noted: 10^-4 M, 14C-aminopyrine uptake. The procedure:
Compounds of formula I were also tested for anti-secretory activity by their ability to inhibit the highly specific proton transporting enzyme H^+ /K^+ ATPase.
Potential H^+ /K^+ ATPase inhibitors are evaluated by a technique involving the measurement of aminopyrine accumulation in rabbit isolated gastric glands. Aminopyrine, which is a weak base, accumulates in acid-secreting cells; therefore, uptake of aminopyrine is increased by secretagogues and an inhibitor of acid secretion will reduce the response to one or more secretagogues depending upon its site of action. Compounds which reduce the response to dibutyryl cyclic adenosine monophosphate (DBcAMP) stimulation are assumed to have an intracellular site of action, and those which reduce the response to both DBcAMP and high potassium ion concentration (K^+) are thought to have an intracellular site of action at the secretory surface of the parietal cell, involving the highly specific proton - transporting enzyme, H^+ /K^+ ATPase. The following test procedure is used:
Rabbit gastric glands are isolated from gastric mucosa from the corpus region of the stomach by a method based on one described by Berglindh T., Obrink K. J., Acta Physiol. Scand. 96, 150-159 (1976). Measurement of aminopyrine uptake is carried out using a modification of the method described by Berglindh T., Hellander H. F., Obrink K. J. (ibid, 97, 401-414, 1976).
Compounds are tested at a concentration of 10^-4 M, initially, and in some cases at lower concentrations, for their ability to inhibit ^14 C-aminopyrine uptake in gastric glands, stimulated by DBcAMP and high K^+ respectively. Results are expressed as the % inhibition of the maximum response to the secretagogue induced by the test compound. An inhibitor of H^+ /K^+ ATPase would be expected to reduce the response to both secretagogues.

A short description of assay [2]: anti-secretory test of Shay et al (as exemplified by Beattie et al). Type of assay: in vivo. To be noted: read-out: Anti-Secretory (Shay et al) % Change in volume.
Setting [3] is: DBcAMP stimulation, read-out: % Inhibition to Stimulation by DBcAMP at 10^-4.
Setting [4] is: high K+ stimulation, read-out: % Inhibition to Stimulation by K^+ at 10^-4.

Where two headings read alike, the source gives them in different places.

T1 sequence (P27112 whole entry): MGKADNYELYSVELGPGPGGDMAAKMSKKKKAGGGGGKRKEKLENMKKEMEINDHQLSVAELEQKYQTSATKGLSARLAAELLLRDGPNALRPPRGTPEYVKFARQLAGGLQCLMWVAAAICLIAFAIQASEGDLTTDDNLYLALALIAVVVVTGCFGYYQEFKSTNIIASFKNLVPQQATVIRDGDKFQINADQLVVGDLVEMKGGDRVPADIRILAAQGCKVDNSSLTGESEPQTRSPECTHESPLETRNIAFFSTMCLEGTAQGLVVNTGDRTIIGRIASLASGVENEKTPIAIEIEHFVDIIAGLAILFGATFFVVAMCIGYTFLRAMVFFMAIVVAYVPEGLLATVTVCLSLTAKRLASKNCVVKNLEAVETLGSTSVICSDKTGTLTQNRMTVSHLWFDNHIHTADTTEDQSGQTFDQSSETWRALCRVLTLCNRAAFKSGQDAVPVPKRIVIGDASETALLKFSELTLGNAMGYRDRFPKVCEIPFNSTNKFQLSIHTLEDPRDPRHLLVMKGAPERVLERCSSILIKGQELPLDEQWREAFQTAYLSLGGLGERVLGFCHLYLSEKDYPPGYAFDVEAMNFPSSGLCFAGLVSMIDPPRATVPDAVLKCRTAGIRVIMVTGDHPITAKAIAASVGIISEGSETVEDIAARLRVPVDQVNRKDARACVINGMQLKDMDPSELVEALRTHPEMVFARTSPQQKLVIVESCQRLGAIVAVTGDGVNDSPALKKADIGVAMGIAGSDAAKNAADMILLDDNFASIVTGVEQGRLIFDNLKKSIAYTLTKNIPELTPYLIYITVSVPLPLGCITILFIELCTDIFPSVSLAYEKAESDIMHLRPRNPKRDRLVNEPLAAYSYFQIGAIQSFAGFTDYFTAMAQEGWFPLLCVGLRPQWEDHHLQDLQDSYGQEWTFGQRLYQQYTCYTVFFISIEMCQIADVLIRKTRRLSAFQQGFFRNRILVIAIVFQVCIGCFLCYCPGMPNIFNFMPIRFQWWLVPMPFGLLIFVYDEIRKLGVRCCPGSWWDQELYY
T1 sequence (P18597 whole entry partner): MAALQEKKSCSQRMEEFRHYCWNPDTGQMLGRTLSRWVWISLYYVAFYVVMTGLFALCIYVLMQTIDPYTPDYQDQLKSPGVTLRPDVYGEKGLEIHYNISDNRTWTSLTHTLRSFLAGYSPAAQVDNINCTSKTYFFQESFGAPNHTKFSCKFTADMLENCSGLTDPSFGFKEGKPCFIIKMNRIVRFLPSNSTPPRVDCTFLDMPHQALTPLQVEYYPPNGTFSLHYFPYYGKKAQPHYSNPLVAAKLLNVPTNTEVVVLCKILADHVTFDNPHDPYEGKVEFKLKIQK

A word on the inhibition in vivo: it is the relative decrease from the control value, in per cent. Low values mean a response near the control, high ones a response far below the control. Broadly, the inhibition is the drop in the measured response relative to a control, in per cent. `c1ccc(CSc2nc3cccc4c3n2CCC4)nc1` [Example 1, 5,6-Dihydro-2-(2-pyridylmethylthio)-4H-imidazo-[4,5,1-ij]-quinoline] returned an inhibition in vivo at 100 mg/kg in assay [1] of 69%. The inhibition at 100 µM at H^+ /K^+ ATPase (setting [3]) came to 34%.

In assay [1], `[O-][S+](Cc1ccccn1)c1nc2cccc3c2n1CCC3` (stereo not drawn) [Example 2, 2-(2-Pyridylmethylsulphinyl)-5,6-dihydro-4H-imidazo-[4,5,1-ij]quinoline] came in with an inhibition in vivo at 100 mg/kg of 60%. Besides, the values for the inhibition at 100 µM on H^+ /K^+ ATPase (setting [3]) and at H^+ /K^+ ATPase (setting [4]) were 97% and 65%, respectively.

As for `Cc1cccnc1CSc1nc2cccc3c2n1CCC3` [Example 3, 5,6-Dihydro-2-(2-(3-methylpyridyl)methylthio)-4-[H]-imidazo-[4,5,1-ij]quinoline], the inhibition in vivo at 100 mg/kg in assay [1] came to 68%. For the same compound, the inhibition at 100 µM at H^+ /K^+ ATPase (setting [4]) is -109%.

In the case of `C1=Cc2cccc3nc(SCc4ccccn4)n(c23)C1` [Example 4, 2-(2-Pyridylmethylthio)-4[H]-imidazo-[4,5,1-ij]quinoline], the inhibition at 100 µM at H^+ /K^+ ATPase (setting [3]) came to 16.7%; at H^+ /K^+ ATPase (setting [4]), 35.5%.

Take `Cc1cccnc1C[S+]([O-])c1nc2cccc3c2n1CCC3` (stereo not drawn) [Example 5, 5,6-Dihydro-2-(2-(3-methylpyridyl)methylsulphinyl)-[4H]-imidazo-[4,5,1-ij]quinoline]: the inhibition at 100 µM on H^+ /K^+ ATPase (setting [3]) turned out to be 66%.

`c1ccc(-c2cccc(CSc3nc4cccc5c4n3CCC5)n2)cc1` [Example 6, 5,6-Dihydro-2-(2-(6-phenylpyridyl)methylthio)-[4H]-imidazo-[4,5,1-ij]quinoline]: 100 mg/kg produced 58% inhibition in vivo in assay [1]. Besides, the inhibition at 100 µM is 36% on H^+ /K^+ ATPase (setting [3]) and 182% on H^+ /K^+ ATPase (setting [4]).

Regarding `Cc1cnc(CSc2nc3cccc4c3n2CCC4)c(C)c1` [Example 7, 5,6-Dihydro-2-(2-(3,5-dimethylpyridyl)methylthio)-[4H]-imidazo-[4,5,1-ij]quinoline], the inhibition at 100 µM at H^+ /K^+ ATPase (setting [3]) was 70%; at H^+ /K^+ ATPase (setting [4]), 74%.

In the case of `Cc1cnc(C[S+]([O-])c2nc3cccc4c3n2CCC4)c(C)c1` (stereo not drawn) [Example 8], at H^+ /K^+ ATPase (setting [3]), the inhibition at 100 µM is 48%.

As to `c1ccc(-c2nc(CSc3nc4cccc5c4n3CCC5)cs2)cc1` [Example 9, 5,6-Dihydro-2-[(2-phenylthiazol-4-yl)methylthio]-4H-imidazo[4,5,1-ij]quinoline], the inhibition at 100 µM was determined as 75% on H^+ /K^+ ATPase (setting [3]) and 122% on H^+ /K^+ ATPase (setting [4]).

For the compound `COc1cc2c3c(c1)nc(SCc1cccc(-c4ccccc4)n1)n3CCC2` [Example 10B, 5,6-Dihydro-8-methoxy-2-[(6-phenylpyridin-2-yl)-methylthio]-4H-imidazo[4,5,1-ij]quinoline], the inhibition at 100 µM at H^+ /K^+ ATPase (setting [3]) was 98%; on H^+ /K^+ ATPase (setting [4]) it was 136%.

In the case of `c1ccc2nc(CSc3nc4cccc5c4n3CCC5)ccc2c1` [Example 11, 5,6-dihydro-2-(quinolin-2-ylmethylthio)-4H-imidazo[4,5,1-ij]quinoline], in assay [2], the change in vivo at 30 mg/kg is 22%. The results for the inhibition at 100 µM on H^+ /K^+ ATPase (setting [3]) and at H^+ /K^+ ATPase (setting [4]) were 62% and 147%, respectively.

For `COc1cc2c3c(c1)nc(SCc1ccc4ccccc4n1)n3CCC2` [Example 19, 5,6-Dihydro-8-methoxy-2-(quinolin-2-ylmethylthio)-4H-imidazo-[4,5,1-ij]quinoline], the inhibition at 100 µM stood at 70% at H^+ /K^+ ATPase (setting [3]) and 124% on H^+ /K^+ ATPase (setting [4]).

Regarding `COc1cc2c3c(c1)nc(SCc1ccncc1)n3CCC2` [Example 20, 5,6-Dihydro-8-methoxy-2-(4-pyridylmethylthio)-4H-imidazo[4,5,1-ij]quinoline], the inhibition at 100 µM at H^+ /K^+ ATPase (setting [3]) was determined as 68%.

On to `c1cc2c3c(c1)nc(SCc1ccncc1)n3CCC2` [Example 21, 5,6-Dihydro-2-(4-pyridylmethylthio)-4H-imidazo[4,5,1-ij]-quinoline], for which the inhibition at 100 µM at H^+ /K^+ ATPase (setting [3]) came to 66%.

For the origin of these results see patent US4703044A, “Imidazoquinolines containing other heterocyclic groups, useful as anti-ulcer or anti-secretory agents” (John Wyeth & Brother Limited, priority 1983, dated 1987).
